Assay results published in ChEMBL document CHEMBL2029245, “Binding evaluation of fragment-based scaffolds for probing allosteric enzymes” (J Med Chem, 2012).

Assays:
[1] = molecular target: T1, Glycogen phosphorylase, muscle form (Oryctolagus cuniculus, UniProt P00489)
T1 sequence (P00489 whole entry): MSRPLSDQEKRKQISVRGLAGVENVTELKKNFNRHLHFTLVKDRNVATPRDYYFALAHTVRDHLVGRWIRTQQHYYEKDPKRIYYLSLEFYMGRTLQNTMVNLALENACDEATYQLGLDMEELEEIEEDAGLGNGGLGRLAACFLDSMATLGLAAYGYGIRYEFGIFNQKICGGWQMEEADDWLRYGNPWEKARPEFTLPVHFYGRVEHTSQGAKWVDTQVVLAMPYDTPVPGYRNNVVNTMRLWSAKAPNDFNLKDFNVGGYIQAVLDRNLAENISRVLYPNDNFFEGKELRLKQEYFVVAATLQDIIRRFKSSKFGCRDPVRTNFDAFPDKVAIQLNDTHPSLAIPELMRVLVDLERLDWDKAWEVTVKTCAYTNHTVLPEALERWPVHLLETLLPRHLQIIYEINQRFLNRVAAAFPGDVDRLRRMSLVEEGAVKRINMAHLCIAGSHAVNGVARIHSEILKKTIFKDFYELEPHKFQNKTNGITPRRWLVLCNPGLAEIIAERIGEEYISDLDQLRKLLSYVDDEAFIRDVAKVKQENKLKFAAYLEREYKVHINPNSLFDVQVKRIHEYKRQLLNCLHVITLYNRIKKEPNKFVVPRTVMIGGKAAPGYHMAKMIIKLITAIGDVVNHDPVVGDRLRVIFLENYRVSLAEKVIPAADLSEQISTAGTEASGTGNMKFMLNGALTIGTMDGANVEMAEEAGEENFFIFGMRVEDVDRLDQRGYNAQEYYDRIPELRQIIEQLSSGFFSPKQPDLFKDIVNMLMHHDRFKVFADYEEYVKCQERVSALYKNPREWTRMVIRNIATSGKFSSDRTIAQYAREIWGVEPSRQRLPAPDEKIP
Description: Binding affinity to rabbit muscular GPb by NMR binding assay

[2] = molecular target: T2, Glycogen phosphorylase, liver form (Homo sapiens, UniProt P06737); assay: Binding affinity to human liver GPa by NMR binding assay
T2 sequence (P06737 whole entry): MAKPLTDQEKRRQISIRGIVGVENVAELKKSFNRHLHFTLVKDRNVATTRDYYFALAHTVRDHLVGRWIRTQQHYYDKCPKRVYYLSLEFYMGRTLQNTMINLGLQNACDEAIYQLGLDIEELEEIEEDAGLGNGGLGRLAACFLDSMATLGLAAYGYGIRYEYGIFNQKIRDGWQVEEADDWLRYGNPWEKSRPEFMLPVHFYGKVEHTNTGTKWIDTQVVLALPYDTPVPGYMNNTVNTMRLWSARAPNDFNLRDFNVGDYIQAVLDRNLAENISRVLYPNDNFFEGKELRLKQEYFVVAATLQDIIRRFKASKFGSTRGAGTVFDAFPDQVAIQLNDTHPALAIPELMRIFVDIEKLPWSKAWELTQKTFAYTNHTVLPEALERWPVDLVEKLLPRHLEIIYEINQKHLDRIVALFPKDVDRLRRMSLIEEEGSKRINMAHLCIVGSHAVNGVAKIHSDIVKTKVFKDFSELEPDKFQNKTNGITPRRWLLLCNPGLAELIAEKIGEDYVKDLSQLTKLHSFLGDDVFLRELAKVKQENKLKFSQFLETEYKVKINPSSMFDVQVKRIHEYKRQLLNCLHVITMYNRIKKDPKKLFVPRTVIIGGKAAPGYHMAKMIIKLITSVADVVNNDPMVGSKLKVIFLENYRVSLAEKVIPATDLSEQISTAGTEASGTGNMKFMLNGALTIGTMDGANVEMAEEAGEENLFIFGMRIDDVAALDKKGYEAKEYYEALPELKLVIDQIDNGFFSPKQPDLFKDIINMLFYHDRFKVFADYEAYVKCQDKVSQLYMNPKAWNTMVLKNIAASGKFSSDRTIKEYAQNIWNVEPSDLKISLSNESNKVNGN

[3] = molecular target: T1, Glycogen phosphorylase, muscle form; assay: Binding affinity to rabbit muscular GPa by NMR binding assay

SMILES	IC50 [1]	IC50 [2]	IC50 [3]
Cc1cn([C@@H]2O[C@H](CO)[C@@H](O)[C@H](O)[C@H]2O)c(=O)[nH]c1=O	6.6 µM	–	–
O=C(NC(=O)c1cc2ccccc2[nH]1)N[C@@H]1O[C@H](CO)[C@@H](O)[C@H](O)[C@H]1O	4 µM	–	–
O=C(O)c1ccccc1-n1cc(C(=O)O)c(=O)c2cc(Cc3c(F)cc(F)cc3Cl)c(Cl)cc21	0.024 µM	–	–
COCCNC(=O)c1c[nH]c2ccc(Cl)cc12	–	12.5 µM	–
O=C(CN1CCN(c2ccccc2)CC1)Nc1nccs1	–	–	96.9 µM
O=C1NCC(O)NC12O[C@H](CO)[C@@H](O)[C@H](O)[C@H]2O (stereo not given in full)	59.8 µM	–	–

More lines, now with the values ahead:

IC50 [1]	IC50 [2]	IC50 [3]	SMILES
0.9 µM	1.3 µM	–	Nc1ccccc1C(=O)Nc1ccccc1Oc1ccc(C(=O)O)c(C(=O)O)c1
–	–	2.7 µM	Cc1cc(F)c(Sc2nccn2C)cc1C(=O)Nc1cccc(N)c1
–	–	9.9 µM	Cc1cc(F)c(Sc2nccn2C)cc1C(=O)Nc1cccc(C#N)c1
